From patent publication US8980885B2, “Plant disease controlling composition and method for controlling plant disease” (Sumitomo Chemical Company, Limited, priority 2008, dated 2015)

System: Sclerotinia sclerotiorum
Experiment: Controlling test against Sclerotinia sclerotiorum on cucumber by foliage spraying (Test Example 1)
Type: in vivo
Conditions: single compound, 12° C., high humidity, 6 days
Description: A sand loam was charged into a plastic pot, and cucumber (Sagamihanjiro) was seeded, and grown in a greenhouse for 12 days. A flowable of the compound I, and a flowable comprising any one of the compound II-i, the compound II-ii, the compound III, the compound IV, the compound V and the compound VI were diluted with water separately, and they were tank-mixed to prepare a tank mix solution having each predetermined concentration. The tank mix solution was subjected to foliage spraying so that it was sufficiently adhered to a leaf surface of the cucumber. After spraying, the plant was air-dried, and a PDA medium containing hyphae of Sclerotinia sclerotiorum was placed on the cucumber leaf surface. After seeding, this was placed under 12° C. and the high humidity for 6 days, the controlling effect was investigated. Separately, for comparison, each of the flowables was diluted with water to prepare a water-diluted solution of compounds I to VI having the predetermined concentration, and the similar controlling test was carried out. Further, for calculating a effective value, an onset area rate (ratio of onset area occupied in leaf area examined) in each treatment group was determined. The effective value was calculated by the Equation 1. […] A: Onset area rate of non-treated group B: Onset area rate of treated group In general, an effective value expected in treatment by mixing given two kinds of active ingredient compounds, i.e., an expected effective value is calculated by a Colby calculation equation of the Equation 2. E=X+Y−(X×Y)/100 “Equation 2” X: Effective value obtained by treatment with M ppm of the compound I Y: Effective value obtained by treatment with N ppm of the compound II, III or IV E: Effective value expected in treatment with M ppm of the compound I and N ppm of the compound II, III or IV (expected effective value) In addition, a synergistic effect was shown herein by a value calculated by the following Equation 3.

Question: How did the Actual effective value (0.2 ppm) turn out when `CNC(=O)[C@H](OC)c1ccccc1COc1cc(C)ccc1C` [Compound II-i] was run?
Answer: 14%

Question: And the Actual effective value (0.8 ppm)?
Answer: 55%

Question: Which results are given for `CNC(=O)C(OC)c1ccccc1COc1cc(C)ccc1C` (racemic) [Compound II-ii]?
Answer: Actual effective value (0.2 ppm): 4%; Actual effective value (0.8 ppm): 31%

Question: For `CNC(=O)/C(=N/OC)c1ccccc1COc1cc(C)ccc1C` [Compound III, (αE)-2-[(2,5-dimethylphenoxy)methyl]-α-(methoxyimino)-N-methylbenzeneacetamino, reference compound], which Actual effective value (0.2 ppm) is on record?
Answer: 9%

Question: With `C=CCSC(=O)n1c(N)c(-c2ccccc2C)c(=O)n1C(C)C` [Compound I] as the compound, how does the Actual effective value (3.1 ppm) read?
Answer: 58%

Question: Which Actual effective value (0.2 ppm) does the source give for `CO/C=C(/C(=O)OC)c1ccccc1Oc1cc(Oc2ccccc2C#N)ncn1` [Compound V, methyl (E)-2-{2-[6-(2-cyanophenoxy)pyrimidin-4-yloxy]phenyl}-3-methoxyacrylate, reference compound] here?
Answer: 10%

Question: How did the Actual effective value (0.2 ppm) turn out when `COC(=O)N(OC)c1ccccc1COc1ccn(-c2ccc(Cl)cc2)n1` [Compound VI, methyl 2-[[1-(4-chlorophenyl)-1H-pyrazol-3-yloxymethyl]phenyl](N-methoxy)carbamate, reference compound] was run?
Answer: 29%

Question: Which Actual effective value (0.2 ppm) does the source give for `CO/N=C(/C(=O)OC)c1ccccc1CO/N=C(\C)c1cccc(C(F)(F)F)c1` [Compound IV, methyl (E)-methoxyimino-{(E)-α-[1-(α,α,α-trifluoro-m-tolyl]ethylideneaminooxy)-o-tolyl)acetate, reference compound] here?
Answer: 28%
